Consider 2 compounds from patent publication US20020039567A1, “Methods of treating bone or cartilage conditions by the administration of creatine” (priority 1998, published 2002).

The test system of one experiment is embryonic chick femora. The following applies: cited from earlier work.
Experiment [1] concerns osteoblasts (micromass culture). The experiment in a line: Cell viability (neutral red uptake), micromass osteoblast cell culture. It is filed as cell-based, rat. The settings on record: 20 mM creatine; 3 weeks; vs control (p<0.005) and 10 mM creatine (p<0.003). On the procedure:
This isolation technique is based on the ability of osteoblasts to migrate from bone onto a substratum. Parietal and frontal calvariae (4 per animal) were aseptically explanted from 6 day-old IcoIbm rats. The calvariae were placed in Tyrode's balanced salt solution, calcium and magnesium free (TESS). The periosteum was enzymatically removed with 0.05% trypsin and 0.02% collagenase A (0.76 U/mg) dissolved in TBSS (40 calvaria/20 ml). The calvariae were shaken for 70 minutes in a waterbath at 37° C. They were washed with TESS and then transferred to 60 mm culture dishes (40 calvariae/dish) containing 5 ml of 0.02% collagenase A (0.76 U/mg) in culture medium BGJb Fitton-Jackson modification and placed in the incubator for 4 hours. The calvariae were then washed with culture medium B supplemented with 10% foetal calf serum (FCS). The calvariae were transferred into 60 mm culture dishes (4 frontal and 4 parietal/dish). The growth medium supplemented with 10% FCS and 50 μg/ml ascorbate was completely changed every 48 hours. The culture was kept for 3 weeks. […] The viability of the resuspended cells was examined by the dye exclusion of 0.4% trypan blue, and the cells were counted in a haeinocytometer. […] The absorbance of the supernatant (3 aliquots/dish) was read at 540 nm versus extraction buffer. […] If the absorbance was higher than 1, the samples were diluted with extraction buffer.

The test system of the next experiment is embryonic rat femora. Description: Embryonic rat femora wet weight in organ culture. On the procedure: The rats were sacrificed on the 17th to 18th day of pregnancy. The embryos were aseptically removed from the uterus, and both femora were carefully dissected free into sterile TBSS under the stereo-microscope. Organ-culture of the rudiments was performed in 10 cm^2 plastic culture dishes. A Teflon carrier with a nylon mesh (20 μm pore size) was mounted in the dish, keeping the explants floating and ensuring optimal gas exchange and nutritional conditions. The right and the left femora from each animal were randomly assigned to the experimental or control group. The control groups were kept in 3 ml B with 50 μg/ml ascorbate. In the experimental group, the growth medium was supplemented with either 10 mM creatine, 20 mM creatine, 1 mM GPA, 5 mM GPA, or 10 mM GPA. The growth medium was renewed every second day until day 10. Culture was carried out at 37.5° C. and in a 5% CO2 atmosphere. At 10 days, the wet weight of each femora was determined on a microbalance. The result of each experimental femora was expressed relative to its collateral control. For the histological evaluation, the femora as fixed in 4% formaldehyde, dehydrated, and embedded in methylmethacrylate. The 6 μm sections were stained by Pentachrome-Movat.

For the next experiment, the system named is epiphyseal growth plate. The following applies: feeding rats with GPA; cited from earlier work.
The next experiment deals with cultured chondrocytes. The following applies: cited from earlier work.

As for `CN(CC(=O)O)C(=N)N` [creatine], the “perichondral ossification in the diaphysis” value in the experiment on embryonic chick femora (0.1 mM in chick embryo extract with 20% horse serum) was “accelerated”. In addition, in the experiment with embryonic chick femora (very crude preparations at 0.1 mM in chick embryo extract with 20% horse serum), the “deposition of calcium in the cartilage matrix of the epiphysis” value is listed as “accelerated”. For the same compound, the NR uptake entry in experiment [1] is recorded as “significantly lower NR uptake”. For the same compound, the “wet weight of femora (FIG. 5)” value in the experiment on embryonic rat femora (10 mM creatine vs control, p<0.0005) was “control (FIG. 5) had significantly lower wet weights than”; in the experiment with embryonic rat femora (20 mM creatine vs control, p<0.001), “control (FIG. 5) had significantly lower wet weights than”.

As for `N=C(N)NCCC(=O)O` [GPA, beta-guanidinopropionic acid], the “epiphyseal growth plate morphology” value in the experiment with epiphyseal growth plate was “marked abnormalities”. Besides, in the experiment with cultured chondrocytes, the “synthesis of pro-a type II and type X collagen” value is reported as “interferes with the synthesis”. Further, the “wet weight of femora (FIG. 5)” value is on record as “not significantly different from the control” in the experiment on embryonic rat femora (1 mM GPA vs control); “control (FIG. 5) had significantly lower wet weights than” in the experiment with embryonic rat femora (5 mM GPA vs control, p<0.0005); “control (FIG. 5) had significantly lower wet weights than” in the experiment on embryonic rat femora (10 mM GPA vs control, p<0.015).
